Data: the supplement of paper PMC10307832

Experiments:
Assay in all cases: relative viability (nuclei count vs DMSO), 5 days (fraction); higher = more cells survive
NCI-H1355 = test system: NCI-H1355
Procedure, shortened: (§1)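 Nuclei were stained with Hoechst during a one-step fixation (final 0.05% Triton X-100, 1% formaldehyde, 1 ug/ml Hoechst) carried out 5 days after dosing, then counted on 4× images. The cells, lung cancer lines in 1536-well plates, had been dosed by pin tool the day after seeding with one drug alone or a fixed anchor-drug dose plus five library-drug doses (not always all listed) in √10 steps. Relative viability is the nuclei count in treated wells divided by that in vehicle wells, and each value is the median of duplicate plates.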

NCI-H322M = test system: NCI-H322M
Procedure, shortened: as §1

NCI-H1651 = test system: NCI-H1651
Procedure, shortened: as §1

NCI-H460 = test system: NCI-H460
Procedure, shortened: as §1

NCI-H441 = test system: NCI-H441
Procedure, shortened: as §1

RERF-LC-KJ = test system: RERF-LC-KJ
Procedure, shortened: as §1

NCI-H727 = test system: NCI-H727
Procedure, shortened: as §1

NCI-H1563 = test system: NCI-H1563
Procedure, shortened: as §1

NCI-H3122 = test system: NCI-H3122
Procedure, shortened: as §1

NCI-H1792 = test system: NCI-H1792
Procedure, shortened: as §1

NCI-H1755 = test system: NCI-H1755
Procedure, shortened: as §1

NCI-H2170 = test system: NCI-H2170
Procedure, shortened: as §1

NCI-H650 = test system: NCI-H650
Procedure, shortened: as §1

NCI-H1915 = test system: NCI-H1915
Procedure, shortened: as §1

NCI-H520 = test system: NCI-H520
Procedure, shortened: as §1

NCI-H2347 = test system: NCI-H2347
Procedure, shortened: as §1

LXF-289 = test system: LXF-289
Procedure, shortened: as §1

LCLC-103H = test system: LCLC-103H
Procedure, shortened: as §1

NCI-H661 = test system: NCI-H661
Procedure, shortened: as §1

PC-14 = test system: PC-14
Procedure, shortened: as §1

SK-MES-1 = test system: SK-MES-1
Procedure, shortened: as §1

NCI-H596 = test system: NCI-H596
Procedure, shortened: as §1

## Clc1ccc(Nc2nnc(Cc3ccncc3)c3ccccc23)cc1 [Vatalanib] + Cc1nc(NC(=O)N2CCC[C@H]2C(N)=O)sc1-c1ccnc(C(C)(C)C(F)(F)F)c1 [Alpelisib] (partner 2 µM)
NCI-H1355; first compound 0.04 µM
  relative viability: 0.821
NCI-H1355; first compound 0.1265 µM
  relative viability: 0.747
NCI-H1355; first compound 0.4 µM
  relative viability: 0.87
NCI-H1355; first compound 1.265 µM
  relative viability: 0.691
NCI-H1355; first compound 4 µM
  relative viability: 0.711
NCI-H322M; first compound 0.04 µM
  relative viability: 0.775
NCI-H322M; first compound 0.1265 µM
  relative viability: 0.709
NCI-H322M; first compound 0.4 µM
  relative viability: 0.75
NCI-H322M; first compound 1.265 µM
  relative viability: 0.782
NCI-H322M; first compound 4 µM
  relative viability: 0.795
NCI-H1651; first compound 0.04 µM
  relative viability: 0.869
NCI-H1651; first compound 0.1265 µM
  relative viability: 0.863
NCI-H1651; first compound 0.4 µM
  relative viability: 0.968
NCI-H1651; first compound 1.265 µM
  relative viability: 0.894
NCI-H1651; first compound 4 µM
  relative viability: 0.929
NCI-H460; first compound 0.04 µM
  relative viability: 0.512
NCI-H460; first compound 0.1265 µM
  relative viability: 0.392
NCI-H460; first compound 0.4 µM
  relative viability: 0.654
NCI-H460; first compound 1.265 µM
  relative viability: 0.467
NCI-H460; first compound 4 µM
  relative viability: 0.441
NCI-H441; first compound 0.04 µM
  relative viability: 0.808
NCI-H441; first compound 0.1265 µM
  relative viability: 0.627
NCI-H441; first compound 0.4 µM
  relative viability: 0.733
NCI-H441; first compound 1.265 µM
  relative viability: 0.836
NCI-H441; first compound 4 µM
  relative viability: 0.859
RERF-LC-KJ; first compound 0.04 µM
  relative viability: 0.824
RERF-LC-KJ; first compound 0.1265 µM
  relative viability: 0.859
RERF-LC-KJ; first compound 0.4 µM
  relative viability: 0.77
RERF-LC-KJ; first compound 1.265 µM
  relative viability: 0.74
RERF-LC-KJ; first compound 4 µM
  relative viability: 0.765
NCI-H727; first compound 0.04 µM
  relative viability: 0.463
NCI-H727; first compound 0.1265 µM
  relative viability: 0.528
NCI-H727; first compound 0.4 µM
  relative viability: 0.666
NCI-H727; first compound 1.265 µM
  relative viability: 0.397
NCI-H727; first compound 4 µM
  relative viability: 0.566
NCI-H1563; first compound 0.04 µM
  relative viability: 0.937
NCI-H1563; first compound 0.1265 µM
  relative viability: 0.862
NCI-H1563; first compound 0.4 µM
  relative viability: 1.03
NCI-H1563; first compound 1.265 µM
  relative viability: 0.863
NCI-H1563; first compound 4 µM
  relative viability: 0.979
NCI-H3122; first compound 0.04 µM
  relative viability: 0.779
NCI-H3122; first compound 0.1265 µM
  relative viability: 0.742
NCI-H3122; first compound 0.4 µM
  relative viability: 0.799
NCI-H3122; first compound 1.265 µM
  relative viability: 0.93
NCI-H3122; first compound 4 µM
  relative viability: 0.906
NCI-H1792; first compound 0.04 µM
  relative viability: 0.669
NCI-H1792; first compound 0.1265 µM
  relative viability: 0.741
NCI-H1792; first compound 0.4 µM
  relative viability: 0.639
NCI-H1792; first compound 1.265 µM
  relative viability: 0.677
NCI-H1792; first compound 4 µM
  relative viability: 0.73
NCI-H1755; first compound 0.04 µM
  relative viability: 0.946
NCI-H1755; first compound 0.1265 µM
  relative viability: 0.895
NCI-H1755; first compound 0.4 µM
  relative viability: 0.977
NCI-H1755; first compound 1.265 µM
  relative viability: 0.857
NCI-H1755; first compound 4 µM
  relative viability: 0.906
NCI-H2170; first compound 0.04 µM
  relative viability: 0.86
NCI-H2170; first compound 0.1265 µM
  relative viability: 0.777
NCI-H2170; first compound 0.4 µM
  relative viability: 0.861
NCI-H2170; first compound 1.265 µM
  relative viability: 0.81
NCI-H2170; first compound 4 µM
  relative viability: 0.811
NCI-H650; first compound 0.04 µM
  relative viability: 1.24
NCI-H650; first compound 0.1265 µM
  relative viability: 0.936
NCI-H650; first compound 1.265 µM
  relative viability: 1.06
NCI-H650; first compound 4 µM
  relative viability: 1.13
NCI-H1915; first compound 0.04 µM
  relative viability: 1.03
NCI-H1915; first compound 0.1265 µM
  relative viability: 1.05
NCI-H1915; first compound 0.4 µM
  relative viability: 1.06
NCI-H1915; first compound 1.265 µM
  relative viability: 1.04
NCI-H1915; first compound 4 µM
  relative viability: 1.1
NCI-H520; first compound 0.04 µM
  relative viability: 0.848
NCI-H520; first compound 0.1265 µM
  relative viability: 0.895
NCI-H520; first compound 0.4 µM
  relative viability: 0.912
NCI-H520; first compound 1.265 µM
  relative viability: 0.855
NCI-H520; first compound 4 µM
  relative viability: 0.852
NCI-H2347; first compound 0.04 µM
  relative viability: 1.05
NCI-H2347; first compound 0.1265 µM
  relative viability: 1.13
NCI-H2347; first compound 0.4 µM
  relative viability: 1.03
NCI-H2347; first compound 1.265 µM
  relative viability: 0.963
NCI-H2347; first compound 4 µM
  relative viability: 1.03
LXF-289; first compound 0.04 µM
  relative viability: 1.08
LXF-289; first compound 0.1265 µM
  relative viability: 1.01
LXF-289; first compound 0.4 µM
  relative viability: 1.06
LXF-289; first compound 1.265 µM
  relative viability: 0.964
LXF-289; first compound 4 µM
  relative viability: 0.995
LCLC-103H; first compound 0.04 µM
  relative viability: 0.987
LCLC-103H; first compound 0.1265 µM
  relative viability: 0.923
LCLC-103H; first compound 0.4 µM
  relative viability: 1.02
LCLC-103H; first compound 1.265 µM
  relative viability: 0.954
LCLC-103H; first compound 4 µM
  relative viability: 0.96
NCI-H661; first compound 0.04 µM
  relative viability: 0.617
NCI-H661; first compound 0.1265 µM
  relative viability: 0.557
NCI-H661; first compound 0.4 µM
  relative viability: 0.717
NCI-H661; first compound 1.265 µM
  relative viability: 0.653
NCI-H661; first compound 4 µM
  relative viability: 0.519
PC-14; first compound 0.04 µM
  relative viability: 0.993
PC-14; first compound 0.1265 µM
  relative viability: 0.9
PC-14; first compound 0.4 µM
  relative viability: 0.97
PC-14; first compound 1.265 µM
  relative viability: 0.904
PC-14; first compound 4 µM
  relative viability: 0.866
SK-MES-1; first compound 0.04 µM
  relative viability: 1.11
SK-MES-1; first compound 0.1265 µM
  relative viability: 0.849
SK-MES-1; first compound 0.4 µM
  relative viability: 0.912
SK-MES-1; first compound 1.265 µM
  relative viability: 0.807
SK-MES-1; first compound 4 µM
  relative viability: 0.868
NCI-H596; first compound 0.04 µM
  relative viability: 0.503
NCI-H596; first compound 0.1265 µM
  relative viability: 0.499
NCI-H596; first compound 0.4 µM
  relative viability: 0.498
NCI-H596; first compound 1.265 µM
  relative viability: 0.53
NCI-H596; first compound 4 µM
  relative viability: 0.511
